Columns and labels:
[1] = standards; 2-aminopyridine λex 295 nm, anthracene λex 340 nm; cited from earlier work
ecDHFR = conditions: cited from earlier work
[2] = tested on: modified DHFRs (biphenyl-phenylalanines at position 115); assay: Inhibition of the modified DHFRs; format: biochemical, E. coli; conditions: all four DHFRs modified at position 115

c1ccc2cc3ccccc3cc2c1 [anthracene]
ΦF of quantum yield standard [1]: 0.27

Nc1ccccn1 [2-aminopyridine]
ΦF of quantum yield standard [1]: 0.60

4-biphenyl-L-phenylalanine
effect on the rate at which ecDHFR consumed NADPH (ecDHFR; replacement of Ile115, in the presence of dihydrofolate): no significant effect

CN(Cc1cnc2nc(N)nc(N)c2n1)c1ccc(C(=O)N[C@@H](CCC(=O)O)C(=O)O)cc1 [methotrexate]
inhibition of the modified enzymes compared with wild type [2]: about the same extent as wild type

L-(7-hydroxycoumarin-4-yl)ethylglycine
rate of NADPH consumption relative to wild type (ecDHFR; position 115 of ecDHFR): about 25%

Source: paper PMC3875372 (Biochemistry, 2013)
